Measured values reported in the supplement of paper PMC10307832.

Columns and labels:
Assay in all cases: relative viability (nuclei count vs DMSO), 5 days (fraction); higher = more cells survive
[1] = compound: C1/C(=C\C2=CC=CS2)/C(=O)/C(=C/C3=CC=CS3)/C1 + COc1cc2c(Oc3ccc(NC(=O)C4(C(=O)Nc5ccc(F)cc5)CC4)cc3F)ccnc2cc1OCCCN1CCOCC1 [Foretinib] (partner 0.25 µM)
Method in brief: (§1)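 Lung cancer cell lines in 1536-well plates were dosed by pin tool the day after seeding, either with one drug alone or with a fixed anchor-drug dose plus five library-drug doses (not always all listed) in √10 steps. After 5 days, cells were fixed and their nuclei stained in one step (final 0.05% Triton X-100, 1% formaldehyde, 1 ug/ml Hoechst), then counted on 4× images. Relative viability is the nuclei count in treated wells divided by that in vehicle wells. Values are medians of duplicate plates.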

[2] = compound: C1/C(=C\C2=CC=CS2)/C(=O)/C(=C/C3=CC=CS3)/C1 + CS(=O)(=O)N1CCN(Cc2cc3nc(-c4cccc5[nH]ncc45)nc(N4CCOCC4)c3s2)CC1 [Pictilisib] (partner 1 µM)
Method in brief: as §1

[3] = compound: C1/C(=C\C2=CC=CS2)/C(=O)/C(=C/C3=CC=CS3)/C1 + CS(=O)(=O)CCNCc1ccc(-c2ccc3ncnc(Nc4ccc(OCc5cccc(F)c5)c(Cl)c4)c3c2)o1 [Lapatinib] (partner 2 µM)
Method in brief: as §1

[4] = compound: C[C@]12O[C@H](C[C@]1(O)CO)n1c3ccccc3c3c4c(c5c6ccccc6n2c5c31)CNC4=O [Lestaurtinib] + CS(=O)(=O)N1CCN(Cc2cc3nc(-c4cccc5[nH]ncc45)nc(N4CCOCC4)c3s2)CC1 [Pictilisib] (partner 1 µM)
Method in brief: as §1

**Q.** UMC-11 was tested. Which relative viability ([1]; first compound 0.2 µM) did it give?
**A.** The relative viability was 0.993.

**Q.** And the relative viability ([1]; first compound 0.6325 µM)?
**A.** The relative viability was 1.12.

**Q.** And the relative viability ([1]; first compound 20 µM)?
**A.** Its relative viability is 1.03.

**Q.** And the relative viability ([2]; first compound 0.2 µM)?
**A.** Its relative viability is 0.829.

**Q.** What about the relative viability ([2]; first compound 0.6325 µM) of the same cell line?
**A.** The relative viability was 0.962.

**Q.** What about the relative viability ([2]; first compound 2 µM) of the same cell line?
**A.** The relative viability was 0.934.

**Q.** And the relative viability ([2]; first compound 20 µM)?
**A.** Its relative viability is 0.758.

**Q.** What about the relative viability ([3]; first compound 0.2 µM) of the same cell line?
**A.** The relative viability was 0.88.

**Q.** What about the relative viability ([3]; first compound 0.6325 µM) of the same cell line?
**A.** Its relative viability is 0.98.

**Q.** And the relative viability ([3]; first compound 2 µM)?
**A.** The relative viability was 1.19.

**Q.** What about the relative viability ([3]; first compound 6.325 µM) of the same cell line?
**A.** Its relative viability is 0.628.

**Q.** And the relative viability ([3]; first compound 20 µM)?
**A.** Its relative viability is 1.1.

**Q.** And the relative viability ([4]; first compound 0.005 µM)?
**A.** The relative viability was 0.83.

**Q.** And the relative viability ([4]; first compound 0.01581 µM)?
**A.** The relative viability was 0.767.

**Q.** And the relative viability ([4]; first compound 0.05 µM)?
**A.** The relative viability was 0.415.

**Q.** And the relative viability ([4]; first compound 0.1581 µM)?
**A.** The relative viability was 0.366.

**Q.** And the relative viability ([4]; first compound 0.5 µM)?
**A.** The relative viability was 0.145.
